Measured values from PMC10119282, “Molecular characterization of AIFM2/FSP1 inhibition by iFSP1-like molecules” (Cell Death & Disease, 2023).

Tests used:
Assay type in all cases: cell-based, murine
[1] = tested on: Pfa1 Gpx4−/− overexpressing chimeric FSP1 C2; assay: Cell viability (Alamar blue), chimeric construct C2; conditions: Mus musculus; chimeric construct C2 (human residues 59 to 120); x axis iFSP1 (μM); read-out: IC50 (dose-response toxicity)
Description: (§1) Cell Lines. 4-hydroxytamoxifen (TAM)-inducible Gpx4^−/− murine immortalized fibroblasts (Pfa1) were reported previously. These cells harbor two loxP-flanked Gpx4 alleles and stably express TAM inducible Cre recombinase allowing the genetic deletion of Gpx4 at will. For all experiments using Gpx4^−/− the well were treated with 4-hydroxitamoxifen (TAM) 1 µM. All cells were cultured with were cultured in DMEM-high glucose (4.5 g glucose/L) with 10% fetal bovine serum (FBS), Glutamax, and 1% penicillin/streptomycin (Gibco, Thermo Fischer) at 37 °C with 5% CO2 and verified to be negative for mycoplasma.
(§2) Cell viability assays. Alamar Blue method: Cells were seeded on 96-well plates (2000 cells per well) and treated with the compounds RSL3, iFSP1 and (liproxstatin-1) after plating. Cell viability was assessed 48 h (unless stated otherwise) after treatment using Alamar Blue as an indicator of viable cells. Alamar blue solution was made by dissolving of 1 g resazurin sodium salt (Thermo Fischer) in 200 mL sterile PBS and sterile filtrated through a 0.22 µm filter. Stock solutions were stored at 4 °C. The working solution was made freshly by adding 200 µL of the stock solution to 25 mL growth media. After 2–4 h incubation time, viability was estimated by measuring the fluorescence using a 540/35 excitation filter and a 590/20 emission on a Spark® microplate reader (Tecan, Zürich, Switzerland). […]

[2] = tested on: Pfa1 Gpx4−/− overexpressing chimeric FSP1 C1; assay: Cell viability (Alamar blue), chimeric construct C1; conditions: Mus musculus; chimeric construct C1 (human residues 1 to 59); x axis iFSP1 (μM); read-out: IC50 (dose-response toxicity)
Description: as §1, §2

[3] = tested on: Pfa1 Gpx4−/− cells overexpressing human FSP1 (hFSP1); assay: Cell viability (Alamar blue), dose-response toxicity in Gpx4-knockout cells expressing hFSP1
Description: as §1
(§3) Cell viability assays. Alamar Blue method: Cells were seeded on 96-well plates (2000 cells per well) and treated with the compounds RSL3, iFSP1 and (liproxstatin-1) after plating. Cell viability was assessed 48 h (unless stated otherwise) after treatment using Alamar Blue as an indicator of viable cells. Alamar blue solution was made by dissolving of 1 g resazurin sodium salt (Thermo Fischer) in 200 mL sterile PBS and sterile filtrated through a 0.22 µm filter. Stock solutions were stored at 4 °C. The working solution was made freshly by adding 200 µL of the stock solution to 25 mL growth media. After 2–4 h incubation time, viability was estimated by measuring the fluorescence using a 540/35 excitation filter and a 590/20 emission on a Spark® microplate reader (Tecan, Zürich, Switzerland).
Codon-optimized Mus musculus (mouse) FSP1 (NP_001034283.1) and Homo sapiens (Human) FSP1 (NP_001185625.1) were synthesized by IDT as gBlocks^TM and subcloned into p442-IRES-blast vectors. The chimera constructs were generated based on the pairwise alignment between the gene of Homo sapiens (Human) and the Mus musculus (Mouse), all the chimeric constructs contain the murine isoform with one region exchanged to the human isoform. […]

[4] = tested on: Pfa1 Gpx4−/− overexpressing hFSP1 Y296A; assay: Cell viability (Alamar blue), hFSP1 Y296A
Description: as §1, §3

[5] = tested on: Pfa1 Gpx4−/− overexpressing mFSP1 L360F; assay: Cell viability (Alamar blue), mFSP1 L360F
Description: as §1, §3

[6] = tested on: Pfa1 Gpx4−/− overexpressing chimeric FSP1 C3; assay: Cell viability (Alamar blue), chimeric construct C3; conditions: Mus musculus; chimeric construct C3 (human residues 121 to 180); x axis iFSP1 (μM); read-out: IC50 (dose-response toxicity)
Description: as §1, §2

[7] = tested on: Pfa1 Gpx4−/− overexpressing chimeric FSP1 C6; assay: Cell viability (Alamar blue), chimeric construct C6
Description: as §1, §2

[8] = Mus musculus, x axis iFSP1 (μM), read-out: IC50 (dose-response toxicity)

**Q.** With `Cc1ccc(-c2c(C#N)c(N)n3c(nc4ccccc43)c2C#N)cc1` [iFSP1] as the molecule, how does the IC50 [1] read?
**A.** The IC50 was 6.2 µM.

**Q.** What about the IC50 [2] of the same molecule?
**A.** The IC50 was 9.41 µM.

**Q.** And the IC50 ([3]; Mus musculus, hFSP1 WT, Δ curve (no Lip-1), Alamar blue, x axis iFSP1 (μM))?
**A.** Its IC50 is 0.45 µM.

**Q.** And the induction of ferroptosis ([3]; human isoform)?
**A.** Its induction of ferroptosis is “induce ferroptosis”.

**Q.** What about the “inhibitor activity (ferroptosis induction)” value [4] of the same molecule?
**A.** The value was “abolishes the inhibitor activity”.

**Q.** And the IC50 [4, 8]?
**A.** The IC50 was 5.62 µM.

**Q.** And the “iFSP1-mediated inhibition of FSP1 (ferroptosis induction)” value [5]?
**A.** Its value is “restored the iFSP1-mediated inhibition of mFSP1”.

**Q.** What about the IC50 [5, 8] of the same molecule?
**A.** Its IC50 is 0.95 µM.

**Q.** And the IC50 [6]?
**A.** The IC50 was 8.71 µM.

**Q.** And the IC50 ([7]; Mus musculus, chimeric construct C6 (human residues 301 till 373), x axis iFSP1 (μM), read-out: IC50 (dose-response toxicity))?
**A.** The IC50 was 1.64 µM.

**Q.** And the induction of ferroptosis ([7]; chimera C6)?
**A.** Its induction of ferroptosis is “underwent ferroptosis upon iFSP1 treatment”.
